{"source": "paper PMC6934184", "about": "“Selective DNA-PKcs inhibition extends the therapeutic index of localized radiotherapy and chemotherapy” (The Journal of Clinical Investigation, 2019)", "target": "T1, TAOK1 (Homo sapiens, UniProt Q7L7X3)", "T1 construct": "purchased Thermo Fisher Scientific (Life Technologies) SelectScreen", "T1 sequence (Q7L7X3 whole entry)": "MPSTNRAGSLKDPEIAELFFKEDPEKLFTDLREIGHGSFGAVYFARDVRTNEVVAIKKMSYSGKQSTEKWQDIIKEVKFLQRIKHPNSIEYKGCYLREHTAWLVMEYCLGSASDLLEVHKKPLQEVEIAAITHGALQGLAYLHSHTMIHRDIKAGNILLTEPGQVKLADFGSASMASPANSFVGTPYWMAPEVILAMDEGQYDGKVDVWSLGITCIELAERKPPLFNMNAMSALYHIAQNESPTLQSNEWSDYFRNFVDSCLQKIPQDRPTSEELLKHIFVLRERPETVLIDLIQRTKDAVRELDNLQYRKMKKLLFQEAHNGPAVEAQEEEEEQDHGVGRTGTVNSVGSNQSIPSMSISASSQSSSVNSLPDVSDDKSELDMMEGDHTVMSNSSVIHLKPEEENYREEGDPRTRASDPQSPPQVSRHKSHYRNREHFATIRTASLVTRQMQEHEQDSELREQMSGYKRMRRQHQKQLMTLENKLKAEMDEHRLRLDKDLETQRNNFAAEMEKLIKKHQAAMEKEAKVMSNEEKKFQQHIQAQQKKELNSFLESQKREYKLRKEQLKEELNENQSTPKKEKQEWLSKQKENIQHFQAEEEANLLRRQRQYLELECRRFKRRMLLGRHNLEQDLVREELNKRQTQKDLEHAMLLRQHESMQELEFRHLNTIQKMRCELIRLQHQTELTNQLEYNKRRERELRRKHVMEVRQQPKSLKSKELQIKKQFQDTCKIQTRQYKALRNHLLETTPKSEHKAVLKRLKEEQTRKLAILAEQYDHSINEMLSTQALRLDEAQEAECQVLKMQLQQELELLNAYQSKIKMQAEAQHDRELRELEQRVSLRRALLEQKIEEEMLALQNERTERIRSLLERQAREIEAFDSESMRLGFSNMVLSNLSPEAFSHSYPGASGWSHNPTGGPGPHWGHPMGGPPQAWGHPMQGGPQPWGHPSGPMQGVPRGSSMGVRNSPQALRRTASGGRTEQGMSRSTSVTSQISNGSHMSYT", "assay": "SelectScreen LanthaScreen", "type": "binding", "settings": "read-out: % displacement", "summary_of_the_method": "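Percent values come from Thermo SelectScreen profiling of NU5455, combining activity and binding assays. CSF1R was run in Z'LYTE format at Km app ATP, and CAMK1 in Adapta format with ATP listed at 10.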", "data": [{"smiles": "CN(C(=O)CN1CCOCC1)c1ccc2sc3c(-c4cccc5c(=O)cc(N6CC7CCC(C6)O7)oc45)cccc3c2c1", "note": "[NU5455]", "values": [{"measurement": "inhibition at 1 µM", "result": 3.7, "unit": "%"}]}]}
